Assays:
Fusarium graminearum = format: in vivo; conditions: barley, curative spray, 125 g/ha of each active compound, evaluation 7 days after inoculation
[1] = tested on: Erysiphe graminis f.sp. tritici; experiment: Erysiphe test (wheat)/curative; format: in vivo; conditions: curative spray, 125 g/ha of each active compound, evaluation 8 days after inoculation
Experimental: (§1) Solvent: 50 parts by weight of N,N-dimethylacetamide Emulsifier: 1 part by weight of alkylaryl polyglycol ether
(§2) To produce a suitable preparation of active compound, 1 part by weight of active compound is mixed with the stated amounts of solvent and emulsifier, and the concentrate is diluted with water to the desired concentration.
To test for curative activity, young plants are sprayed with spores of Erysiphe graminis f.sp. tritici. 48 hours after the inoculation, the plants are sprayed with the preparation of active compound at the stated application rate. The plants are placed in a greenhouse at a temperature of about 20° C. and a relative atmospheric humidity of about 80% to promote the development of mildew pustules. Evaluation is carried out 8 days after the inoculation. What is determined is the efficacy in %. 0% means an efficacy which corresponds to that of the control, whereas an efficacy of 100% means that no infection is observed.

Penicillium brevicaule = Penicillium brevicaule test (in vitro)/microtest; format: cell-based; conditions: 4 days incubation, optical density
Experimental: The microtest was performed in liquid medium with potato-dextrose broth (PDB) using microtitre plates.
The active compound is applied as the technical active substance dissolved in aceton.
A spore suspension of Penicillium brevicaule was used for inoculation. After 4 days of incubation by darkness under shaking (10 Hrz), the optical density in each cavity was evaluated with the aid of a microtitre plate reader.
0% means an efficacy which corresponds to that of the control, while an efficacy of 100% means that no fungal growth is observed.

Pyrenophora teres = Pyrenophora teres (barley) test/curative; format: in vivo; conditions: curative spray, 50 g/ha of each active compound, evaluation 8 days after inoculation
Experimental: as §1
as §2, with “desired concentration or the active compound or a combination of active compounds in a commercially available formulation is diluted with water to the desired” for “desired”
To test for curative activity, young plants are sprayed with a conidia suspension of Pyrenophora teres. The plants remain for 48 hours in an incubation cabinet at 20° C. and a relative atmospheric humidity of 100% and are then sprayed with the preparation of active compound at the stated rate of application.
The plants are placed in a greenhouse at a temperature of approximately 20° C. and a relative atmospheric humidity of approximately 80%.
The test is evaluated 8 days after the inoculation.

| Compound | Efficacy in % found (Fusarium graminearum) [%] | Efficacy in % found [1] [%] | Efficacy in % (Penicillium brevicaule; 0.03 ppm) [%] | Efficacy in % (Act = actual efficacy) (Pyrenophora teres) [%] | Efficacy in % (Penicillium brevicaule; 0.003 ppm) [%] |
| --- | --- | --- | --- | --- | --- |
| Cc1nn(C)c(F)c1C(=O)Nc1ccccc1C(C)CC(C)C (centres unmarked) [(I-2), N-[2-(1,3-dimethylbutyl)phenyl]-5-fluoro-1,3-dimethyl-1H-pyrazole-4-carboxamide] | 42 | 0 | 16 | 22 |  |
| Cn1cc(C(=O)Nc2ccc(F)cc2-c2ccc(Cl)c(Cl)c2)c(C(F)F)n1 [(I-23), N-(3′,4′-dichloro-5-fluoro-1,1′-biphenyl-2-yl)-3-(difluoromethyl)-1-methyl-1H-pyrazole-4-carboxamide] |  |  |  | 22 |  |
| OC(Cc1ccccc1Cl)(Cn1nc[nH]c1=S)C1(Cl)CC1 (centres unmarked) [(II-15), prothioconazole] | 58 | 33 |  | 22 |  |
| CC(C)(C)C(O)(CCc1ccc(Cl)cc1)Cn1cncn1 (centres unmarked) [(II-17), tebuconazole] |  |  |  | 22 |  |
| CC(C)C1CCC(Cc2ccc(Cl)cc2)C1(O)Cn1cncn1 (centres unmarked) [(II-18), ipconazole] |  |  |  |  | 8 |
| CO/N=C(/C1=NOCCO1)c1ccccc1Oc1ncnc(Oc2ccccc2Cl)c1F [(III-2), fluoxastrobin] | 50 | 39 |  | 22 |  |
| CON=C(C(=O)OC)c1ccccc1CON=C(C)c1cccc(C(F)(F)F)c1 [(III-4), trifloxystrobin] |  |  |  |  | 1 |
